Experiments:
Assay type in all cases: biochemical
[1] = target: T1, ZNFN3A1 (Homo sapiens, UniProt Q9H7B4, K13N); assay: In vitro histone H3-K4 methyltransferase assay, peptide competition; parameters: made in house; host or cells: transfected mammalian cells (293T), anti-Flag immunoprecipitate; conditions: recombinant histone H3, SAM and HSP90A, addition of competitor peptide, FIG. 2b
T1 sequence (Q9H7B4 1-428 K13N): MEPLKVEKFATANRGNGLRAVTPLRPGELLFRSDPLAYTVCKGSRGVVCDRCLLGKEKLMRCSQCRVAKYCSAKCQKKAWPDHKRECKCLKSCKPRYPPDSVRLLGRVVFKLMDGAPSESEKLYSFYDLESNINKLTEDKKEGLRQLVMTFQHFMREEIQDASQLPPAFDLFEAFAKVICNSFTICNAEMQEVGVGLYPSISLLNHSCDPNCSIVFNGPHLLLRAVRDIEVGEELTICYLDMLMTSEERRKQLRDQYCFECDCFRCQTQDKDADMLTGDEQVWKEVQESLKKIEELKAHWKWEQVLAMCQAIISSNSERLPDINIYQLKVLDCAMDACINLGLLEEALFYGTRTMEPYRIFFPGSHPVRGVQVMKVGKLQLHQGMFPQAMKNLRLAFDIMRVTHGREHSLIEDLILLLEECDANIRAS
Method: H3-K4 specific methyltransferase activity was examined by western blot analysis of recombinant Xenopus H3 protein (UBI) incubated with the immunoprecipitants in the presence of 20 μM unlabeled S-adenosyl-L-methionine (SAM) and 2 μg of HSP90A for 1 hr at 30° C., using antibodies against mono-methylated (Abcam; ab8895), di-methylated (Abcam; ab7766), tri-methylated (Abcam; ab8580) H3-K4, total H3 (Abcam; ab1791), or tri-methylated H3-K9 (UBI; 07523). Lysates of cells transfected with plasmid expressing Flag-tagged wild-type ZNFN3A1, mutant ZNFN3A1, SET7/9, SUV39H1, or mock were immunoprecipitated with anti-Flag antibody (Sigma). Peptides to di-methylated H3-K4 (Abcam; ab7768, ARTK-Me2-QTAR-GGC) and di-methylated H3-K9 (Abcam; ab1772, QTARK-Me2-ST-GGC) were used for competition assay. Recombinant ZNFN3A1 was expressed in E. coli bacteria with plasmids expressing GST-fused ZNFN3A1 or in Sf9 cells with plasmids expressing HA-tagged ZNFN3A1. H3-methyltransferase activity was also analyzed in the presence or absence of 0.04 U SAHH (Sigma) using immunoprecipitated ZNFN3A1 protein or recombinant ZNFN3A1 purified from Sf9 cells.
Since proteins containing SET domain play a crucial role in methylation of histone H3 lysine 4 (H3-K4) or lysine 9 (H3-K9), we investigated whether ZNFN3A1 has an ability to methylate H3-K4 or H3-K9. […]

[2] = target: T1, ZNFN3A1; assay: In vitro HMTase assay of SET domain of ZNFN3A1 with/without recombinant HSP90A; parameters: made in house; host or cells: transfected mammalian cells (293T), anti-Flag immunoprecipitate; conditions: wild-type SET of ZNFN3A1, SAM and histones, with recombinant HSP90A, FIG. 1c lane 4 and 5
Method: (§1) 293T cells were transfected with plasmid expressing Flag-tagged ZNFN3A1 (pFLAG-CMV-ZNFN3A1), SET7 protein or mock, and purified tagged proteins by immunoprecipitation with anti-Flag antibody. In vitro HMTase assay was performed according to the protocol (1) with a slight modification. Briefly, immunoprecipitated protein was incubated with 25 μg of free histones (mixture of H3, H2B, H2A and H4; Roche) as substrates and 2.5 μCi S-adenosyl-L-[methyl-^3H] methionine as methyl donor in a mixture of 40 μl of methylase activity buffer (50 mM Tris-HCl pH 8.5, 20 mM KCl, 10 mM MgCl2, 10 mM β-mercaptoethanol, 250 mM sucrose), for 60 min at 37° C. […]
Proteins containing the wild-type SET domain of ZNFN3A1 and two forms of mutant protein that lacked one of the two regions were prepared, and cross-linked equal amount of each protein with [^3H]-labeled SAM by exposure to UV-radiation. […] The wild-type SET or control recombinant protein of SET7 was further incubated with [^3H]-labeled SAM and a mixture of histones as substrates, and labeled protein after the separation on SDS-PAGE was measured. As expected, a strong band corresponding to [^3H]-labeled histone H3 protein by the control SET7 (FIG. 1c, lane 3) was detected. When substrates were incubated with the wild-type SET of ZNFN3A1, a faint band corresponding to labeled histone H3 was detected, which was not observed with mock (FIG. 1c, lane 1 and 2). […]

[3] = target: T1, ZNFN3A1; assay: In vitro histone H3 methyltransferase activity in the presence or absence of SAHH; parameters: made in house; host or cells: 293T cells transfected with pFLAG-CMV-ZNFN3A1, anti-Flag immunoprecipitate; conditions: presence versus absence of SAHH, FIG. 3d
Method: as §1
H3-K4 specific methyltransferase activity was examined by western blot analysis of recombinant Xenopus H3 protein (UBI) incubated with the immunoprecipitants in the presence of 20 μM unlabeled S-adenosyl-L-methionine (SAM) and 2 μg of HSP90A for 1 hr at 30° C., using antibodies against mono-methylated (Abcam; ab8895), di-methylated (Abcam; ab7766), tri-methylated (Abcam; ab8580) H3-K4, total H3 (Abcam; ab1791), or tri-methylated H3-K9 (UBI; 07523). […] H3-methyltransferase activity was also analyzed in the presence or absence of 0.04 U SAHH (Sigma) using immunoprecipitated ZNFN3A1 protein or recombinant ZNFN3A1 purified from Sf9 cells. […]

Substance | di- and tri-methylation of H3-K4 by wild-type ZNFN3A1 [1] | other results
ARTK-Me2-QTAR-GGC [di-methylated H3-K4 peptides] | completely inhibited | –
HSP90A: recombinant 90-kD heat shock protein, interacting protein of ZNFN3A1 | – | methyl transferase activity onto histone H3 [2]: enhanced methyl transferase activity
S-adenosyl homocysteine hydrolase [SAHH] | – | H3 methyltransferase activity of Flag-tagged ZNFN3A1 [3]: significantly higher
QTARK-Me2-ST-GGC [di-methylated H3-K9 peptides] | unaffected | –

From patent publication US8221993B2, “Methods of detecting methyl transferase activity and methods of screening for methyl transferase activity modulators” (Onco Therapy Science, Inc., priority 2004, dated 2012)
